Measured values as given in US6461997B1, “Triazole sulfones having herbicidal activity” (Monsanto Technology LLC, priority 1999, dated 2002).

Tests used:
POROL (common purslane) = assay: Pre-emergence herbicidal activity, warm season; assay type: in vivo, Portulaca oleracea; details: GR80 = lowest tested rate (300, 100, 30, 10 g/ha) with 80% or greater inhibition; approx. 14 days after treating; 30/21° C.
How it was run: (§1)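 Seeds sown in sterilised fertilised topsoil received surface-applied compound in 50:50 acetone/water, typically at 300, 100, 30 and 10 g/ha, then greenhouse-grown at 30/21° C (warm-season species) or 18/13° C (cool-season species). Percent inhibition versus untreated plants was scored at about 14 days, giving GR80; an asterisk marks activity short of 80% at the top rate.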

ECHCG (barnyardgrass) = assay: Pre-plant incorporated (PPI) herbicidal activity, warm season; assay type: in vivo, Echinochloa crus-galli; details: for inhibition at 10 g/ha / inhibition at 30 g/ha / inhibition at 100 g/ha / inhibition at 300 g/ha / inhibition at 900 g/ha: Echinochloa crus-galli, PPI application, read-out: Percent inhibition ECHCG; for PPI activity GR80, ECHCG: pre-plant incorporated, lowest tested rate with 80% or greater inhibition, about 14 days
Description: (§2) In another set of tests, the pre-plant incorporated (PPI) activity of compounds of this invention was evaluated on the same species as for the pre-emergence tests described above. In the PPI tests the following procedure, designed to simulate PPI application, was used.
(§3) A pre-prepared topsoil mixture (described above) was placed in a pot and compacted to a depth of 1.0 to 1.25 cm from the top of the pot. Seeds of each of several monocotyledonous and dicotyledonous annual plant species were placed on top of the soil. A sufficient quantity of soil to cover the seeds and level fill the pot was weighed into an open container. A known amount of the test compound was dissolved or suspended in an organic solvent and applied by spraying to this cover soil. The cover soil was thoroughly mixed to distribute the test compound throughout the cover soil, and was then applied as a cover layer over the seeds. Untreated soil was used as a cover layer for control pots. After treatment the plants were placed in a greenhouse where they received 0.64 cm of overhead irrigation. All subsequent watering consisted of a light overhead mist and/or subirrigation as needed for germination and growth. Tables 9 and 10 below relate to warm season plant species which were placed after pre-emergence treatment in a greenhouse with a 30/21° C. day/night temperature regime. Tables 11 and 12 below relates to cool season plant species placed after pre-emergence treatment in a greenhouse or growth chamber with an 18/13° C. day/night temperature regime. Only the compounds of Examples 1, 6, 8, 11, 13 and 15-20 were included in PPI tests.
(§4) Approximately 14 days after planting and treating, the plants were observed and herbicidal efficacy recorded as percent inhibition by comparison with untreated plants.

STEME (common chickweed) = assay: Pre-emergence herbicidal activity, cool season; assay type: in vivo, Stellaria media; details: lowest tested rate with 80% or greater inhibition; rates 300, 100, 30, 10 g/ha; about 14 days
How it was run: as §1

rice (ORYSA) = assay: Selectivity test, PPI, warm season crop; assay type: in vivo, Oryza sativa; details: Oryza sativa, PPI application, read-out: Percent inhibition ORYSA
Description: as §3, §4
Additional pre-emergence and PPI tests were conducted by the procedures described above, on warm and cool season weed species in the presence of crop species, to assess herbicidal selectivity. Crop species included in warm season tests were corn (Zea mays, ZEAMX), rice (Oryza sativa, ORYSA) and soybean (Glycine max, GLYMX). Crop species included in cool season tests were wheat (Triticum aestivum, TRZAW), barley (Hordeunm vulgare, HORVX) and oilseed rape (Brassica napus, BRSNS).
Tables 15 and 16 relate to pre-emergence and PPI tests respectively on warm season species. Table 17 relates to pre-emergence tests on cool season species.

SOLNI (black nightshade) = assay: Pre-plant incorporated (PPI) herbicidal activity, warm season; assay type: in vivo, Solanum nigrum; details: for inhibition at 10 g/ha / inhibition at 30 g/ha / inhibition at 100 g/ha / inhibition at 300 g/ha / inhibition at 900 g/ha: Solanum nigrum, PPI application, read-out: Percent inhibition SOLNI; for PPI activity (GR80) SOLNI: pre-plant incorporated, GR80 = lowest tested rate with 80% or greater inhibition, approx. 14 days after treating, 30/21° C.
Description: as §2, §3, §4

AMARE (redroot pigweed) = assay: Pre-emergence herbicidal activity, warm season; assay type: in vivo, Amaranthus retroflexus; details: GR80 = lowest tested rate (300, 100, 30, 10 g/ha) with 80% or greater inhibition; approx. 14 days after treating; 30/21° C.
How it was run: as §1

[1] = test system: LAMPU (purple deadnettle); assay: Pre-plant incorporated (PPI) herbicidal activity, cool season; assay type: in vivo, Lamium purpureum; details: for PPI activity GR80, LAMPU: pre-plant incorporated, lowest tested rate with 80% or greater inhibition, about 14 days
Description: as §2, §3, §4

ABUTH (velvetleaf) = assay: Pre-plant incorporated (PPI) herbicidal activity, warm season; assay type: in vivo, Abutilon theophrasti; details: for inhibition at 10 g/ha / inhibition at 30 g/ha / inhibition at 100 g/ha / inhibition at 300 g/ha / inhibition at 900 g/ha: Abutilon theophrasti, PPI application, read-out: Percent inhibition ABUTH; for PPI activity (GR80) ABUTH: pre-plant incorporated, GR80 = lowest tested rate with 80% or greater inhibition, approx. 14 days after treating, 30/21° C.
Description: as §2, §3, §4

SORVU (shattercane) = assay: as above; assay type: in vivo, Sorghum vulgare; details: for inhibition at 10 g/ha / inhibition at 30 g/ha / inhibition at 100 g/ha / inhibition at 300 g/ha / inhibition at 900 g/ha: Sorghum bicolor, PPI application, read-out: Percent inhibition SORVU; for PPI activity GR80, SORVU: pre-plant incorporated, lowest tested rate with 80% or greater inhibition, about 14 days
Description: as §2, §3, §4

[2] = Lamium purpureum, weed, PPI application, read-out: Percent inhibition LAMPU

Row | Structure (SMILES) | Pre-emergence activity (GR80) POROL (POROL (common purslane)) | inhibition at 30 g/ha (ECHCG (barnyardgrass)) | inhibition at 100 g/ha (ECHCG (barnyardgrass)) | inhibition at 300 g/ha (ECHCG (barnyardgrass)) | inhibition at 900 g/ha (ECHCG (barnyardgrass)) | PPI activity GR80, ECHCG (ECHCG (barnyardgrass)) | Pre-emergence activity GR80, STEME (STEME (common chickweed)) | inhibition at 30 g/ha (rice (ORYSA)) | inhibition at 100 g/ha (rice (ORYSA)) | inhibition at 900 g/ha (rice (ORYSA)) | inhibition at 30 g/ha (SOLNI (black nightshade)) | inhibition at 100 g/ha (SOLNI (black nightshade)) | inhibition at 300 g/ha (SOLNI (black nightshade)) | inhibition at 900 g/ha (SOLNI (black nightshade)) | PPI activity (GR80) SOLNI (SOLNI (black nightshade)) | Pre-emergence activity (GR80) AMARE (AMARE (redroot pigweed)) | inhibition at 30 g/ha [1, 2] | inhibition at 300 g/ha [1, 2] | inhibition at 900 g/ha [1, 2] | PPI activity GR80, LAMPU [1] | other results
1 | C=C(C)CC(F)(F)S(=O)(=O)c1ncn(C(=O)N(CC)CC)n1 [Example 18] | 100 g/ha | 100% | 100% | 100% | 100% | 30 g/ha | 30 g/ha | 0% | 0% | 10% | 0% | 20% | 99% | 90% | 300 g/ha | 300 g/ha | 0% | 0% | 70% | 10 g/ha | inhibition at 10 g/ha (ECHCG (barnyardgrass)): 30%; inhibition at 10 g/ha (rice (ORYSA)): 0%; inhibition at 300 g/ha (rice (ORYSA)): 15%; inhibition at 10 g/ha (SOLNI (black nightshade)): 0%; inhibition at 10 g/ha [1, 2]: 0%; inhibition at 10 g/ha (ABUTH (velvetleaf)): 0%; inhibition at 30 g/ha (ABUTH (velvetleaf)): 0%; inhibition at 100 g/ha (ABUTH (velvetleaf)): 0%; inhibition at 300 g/ha (ABUTH (velvetleaf)): 70%; inhibition at 900 g/ha (ABUTH (velvetleaf)): 90%; PPI activity (GR80) ABUTH (ABUTH (velvetleaf)): 100 g/ha; inhibition at 10 g/ha (SORVU (shattercane)): 20%; inhibition at 30 g/ha (SORVU (shattercane)): 50%; inhibition at 100 g/ha (SORVU (shattercane)): 50%; inhibition at 300 g/ha (SORVU (shattercane)): 100%; inhibition at 900 g/ha (SORVU (shattercane)): 100%; PPI activity GR80, SORVU (SORVU (shattercane)): 100 g/ha
2 | CCSC(F)(F)S(=O)(=O)c1ncn(C(=O)N(CC)CC)n1 [Example 8, 1-(N,N-diethylcarbamoyl)-3-[difluoro(ethylthio)methylsulfonyl]-1,2,4-triazole] | 300 g/ha | 90% | 100% | 100% | 100% | 30 g/ha | [empty] | 0% | 40% | 70% | 50% | 100% | 100% | 100% | 100 g/ha | 100 g/ha | 80% | 90% | 100% | 100 g/ha | inhibition at 300 g/ha (rice (ORYSA)): 50%; inhibition at 100 g/ha ([1]; Lamium purpureum, weed, PPI application, 100 g/ha, read-out: Percent inhibition LAMPU): 100%; inhibition at 30 g/ha (ABUTH (velvetleaf)): 0%; inhibition at 100 g/ha (ABUTH (velvetleaf)): 10%; inhibition at 300 g/ha (ABUTH (velvetleaf)): 20%; inhibition at 900 g/ha (ABUTH (velvetleaf)): 100%; PPI activity (GR80) ABUTH (ABUTH (velvetleaf)): 300 g/ha; inhibition at 30 g/ha (SORVU (shattercane)): 50%; inhibition at 100 g/ha (SORVU (shattercane)): 70%; inhibition at 300 g/ha (SORVU (shattercane)): 100%; inhibition at 900 g/ha (SORVU (shattercane)): 100%; PPI activity GR80, SORVU (SORVU (shattercane)): 300 g/ha
3 | C=C(Br)CC(F)(F)S(=O)(=O)c1ncn(C(=O)N(CC)CC)n1 [Example 19] | 300 g/ha | 20% | 100% | 100% | 100% | 30 g/ha | 10 g/ha | 0% | 0% | 20% | 0% | 0% | 40% | 90% | 100 g/ha | * (activity observed, at least at highest rate, but <80% inhibition) | 0% | 0% | 99% | 100 g/ha | inhibition at 10 g/ha (ECHCG (barnyardgrass)): 20%; inhibition at 10 g/ha (rice (ORYSA)): 0%; inhibition at 10 g/ha (SOLNI (black nightshade)): 0%; inhibition at 10 g/ha [1, 2]: 0%; inhibition at 10 g/ha (ABUTH (velvetleaf)): 0%; inhibition at 30 g/ha (ABUTH (velvetleaf)): 0%; inhibition at 100 g/ha (ABUTH (velvetleaf)): 0%; inhibition at 300 g/ha (ABUTH (velvetleaf)): 0%; inhibition at 900 g/ha (ABUTH (velvetleaf)): 60%; PPI activity (GR80) ABUTH (ABUTH (velvetleaf)): 30 g/ha; inhibition at 10 g/ha (SORVU (shattercane)): 30%; inhibition at 30 g/ha (SORVU (shattercane)): 50%; inhibition at 100 g/ha (SORVU (shattercane)): 65%; inhibition at 300 g/ha (SORVU (shattercane)): 100%; inhibition at 900 g/ha (SORVU (shattercane)): 100%; PPI activity GR80, SORVU (SORVU (shattercane)): 300 g/ha
